According to patent US20250051510A1, “CARBON-IODINE CONJUGATED POLYMER AND PREPARATION THEREOF, AND USE THEREOF FOR PREPARING LOCALIZATION MARKER” (Huazhong University of Science and Technology, priority 2021, published 2025):

Experiments:
[1] = Local injection into rat leg muscles under CT guidance, CT marking over time; type: in vivo; conditions: rat leg muscle, iodine content increased by 25 times
Protocol: In order to verify whether the super-strong CT imaging effect of PIDA is practically applicable, the PIDA dispersion and iohexol with the same iodine content were injected locally into leg muscles of a rat respectively under CT guidance in the present invention. For effective CT marking, the CT signal intensity thereof should be 2 times or more that of background tissues. A background CT signal of rat muscle tissues is about 50 HU, so the CT marking signal intensity exceeding 100 HU can be regarded as effective CT marking. […] To further verify the high efficiency and location stability of PIDA CT imaging, in the present invention, iohexol with the iodine content being increased by 25 times was injected into a corresponding leg muscle site of a rat.

[2] = test system: rat erythrocytes; assay: Hemolysis test with rat erythrocytes; type: cell-based; conditions: PIDA dispersions of different concentrations; Triton = 100% hemolysis control
Protocol: When a material is applied in the biomedical field, in addition to the special imaging/treatment effect of the material, the biocompatibility of the material itself is the topic that people are most concerned about. At the cell level, PIDA dispersions of different concentrations were mixed with rat erythrocytes in the present invention. […] In addition, in the present invention, PIDA dispersions of different concentrations were respectively incubated together with 4Tl cells (mouse breast cancer cells), NIH 3T3 cells (mouse embryonic fibroblasts) and HEK 293T (human embryonic kidney cells) for 12 hours, and cell viability was verified by means of MTT verification.

## CC(=O)N(CC(O)CO)c1c(I)c(C(=O)NCC(O)CO)c(I)c(C(=O)NCC(O)CO)c1I (centres unmarked) [iohexol]
[1]
  time until CT enhancement completely disappeared: ≤ 6 h

## Triton
[2]
  hemolysis rate: complete hemolysis
